Here are results for six compounds from patent US20060142251A1, “Anti-microbial agents derived from methionine sulfoximine analogues” (priority 2002, published 2006).

On data set [1], the source says: Exemplary, non-limiting GS inhibitors of the present invention and their relevant properties are summarized below: [drawing 1]
In a further data set the test system is M. tuberculosis Erdman. Description: M. tuberculosis growth in broth culture. Type of data set: cell-based. The following applies: for inhibition of M. tuberculosis growth in broth culture in comparison with MSO / inhibition of M. tuberculosis in broth culture relative to MSO at each of the three concentrations: 10, 100, 1000 μM; for inhibition of M. tuberculosis growth in broth culture in comparison with MSO: 6 weeks (FIG. 4); for inhibition of M. tuberculosis in broth culture relative to MSO at each of the three concentrations / inhibition of M. tuberculosis growth in broth culture: Example 7; for inhibition of M. tuberculosis growth in broth culture: 10, 100 or 1000 μM, 6 weeks.

Data set [2] relates to M. tuberculosis Erdman in human macrophages (THP-1 cells). The note with it: 20, 200, 2000 μM, CFU to day 5 (FIG. 5).
The conditions of data set [3]: cited from earlier work; for metabolism: do not form the toxic products formed in vivo from MSO.
The conditions of data set [4]: α-Et-MSO: convulsions in a minority of mice vs MSO dose giving 100% of mice; cited from earlier work.
The conditions of data set [5]: in vivo; cited from earlier work.
The conditions of data set [6]: doses that fully inhibit glutathione synthesis; cited from earlier work.
Data set [7] has as its system M. tuberculosis Erdman strain. The class given is in vivo. The note with it: for reduction of CFU in lung and spleen below the level obtained with MSO: from day 14.
This is another data set of the same source.

Several values for one entry are separate records, joined by “and”; a condition that tells them apart may be missing. Identical values can stand only once. Like-named read-outs stand apart in the source and are kept apart here. Bounds are passed on as bounds.

For the compound `CCC(N)(CCS(C)(=N)=O)C(=O)O` (racemic) [α-Et-MSO, α-ethyl-DL-methionine-SR-sulfoximine], the “Estimated Dose of L Isomer that Induces Convulsions in Mice (Relative to MSO)” value (from here on “Estimated Dose … (Relative to MSO)”) in [1] (Table 1) is listed as over 16. In addition, the “Estimated Dose … (Relative to MSO)” value in data set [1] (Table 3) was “≧16”. In the data set with M. tuberculosis Erdman, the “inhibition of M. tuberculosis growth in broth culture in comparison with MSO” value was “as inhibitory to M. tuberculosis growth as MSO”, the “inhibition of M. tuberculosis in broth culture relative to MSO at each of the three concentrations” value was “as inhibitory or slightly more inhibitory than MSO” and the “inhibition of M. tuberculosis growth in broth culture” value is “inhibited M. tuberculosis”. Besides, the “inhibition of M. tuberculosis growth in human macrophages” value in data set [2] was “readily inhibited M. tuberculosis growth in human macrophages”. Moreover, in [3], the metabolism entry is recorded as “resistant to metabolism” and the “Metabolized In Vivo” value is listed as “−”. For the same compound, in data set [4], the “dose that causes convulsions in mice, higher than MSO” value is 16 fold. In data set [5], the “entry into the brain compared with MSO” value was “do not enter the brain as readily as MSO”.
On to `CC(N)(CCS(C)(=N)=O)C(=O)O` (racemic) [α-Me-MSO, α-methyl-DL-methionine-SR-sulfoximine], for which the “Estimated Dose … (Relative to MSO)” value in [1] (Table 1) is given as 8. Moreover, in [1] (Table 3), the “Estimated Dose … (Relative to MSO)” value is 8. In addition, in the data set on M. tuberculosis Erdman, the “inhibition of M. tuberculosis growth in broth culture in comparison with MSO” value is listed as “as inhibitory to M. tuberculosis growth as MSO”, the “inhibition of M. tuberculosis in broth culture relative to MSO at each of the three concentrations” value is reported as “slightly less inhibitory than MSO” and the “inhibition of M. tuberculosis growth in broth culture” value is reported as “inhibited M. tuberculosis”. In addition, in data set [2], the “inhibition of M. tuberculosis growth in human macrophages” value is recorded as “readily inhibited M. tuberculosis growth in human macrophages”. Further, in [3], the metabolism result is on record as “resistant to metabolism” and the “Metabolized In Vivo” value is reported as “−”. Besides, the “dose that causes convulsions in mice, higher than MSO” value in [4] is about 8 fold. Besides, the “entry into the brain compared with MSO” value in data set [5] was “do not enter the brain as readily as MSO”.
Turning to `CCCCS(=N)(=O)CCC(N)C(=O)O` [BSO, D, L-Buthionine-SR-Sulfoximine], in the data set on M. tuberculosis Erdman, the “inhibition of M. tuberculosis growth in broth culture” value is on record as “did not”. Further, in data set [6], the animals killed was 100%.
For `NNC(=O)c1ccncc1` [INH, isoniazid], the entries for the “reduction of CFU in lung and spleen below the level obtained with MSO” value in data set [7] (INH 1 mg kg^−1 day^−1 oral) and in data set [7] (INH 4 mg kg^−1 day^−1 oral) were about 1.5 logs and about 2.5 logs, respectively. Besides, the “protection from weight loss” value in data set [7] ([…], MSO 1.5, INH 1 or 4 mg kg^−1 day^−1) was “protected animals from weight loss”.
For the compound `CS(=N)(=O)CC[C@H](N)C(=O)O` (stereo partly drawn) [MSO, L-methionine-SR-sulfoximine], the “Estimated Dose … (Relative to MSO)” value in [1] (Table 1) is reported as 1. Besides, in [1] (Table 3), the “Estimated Dose … (Relative to MSO)” value is 1. In [7] (in vivo), the “fewer CFU of M. tuberculosis in lung and spleen than control animals” value is given as “approximately 1 log unit”; the “protection from weight loss” value is listed as “protected animals from weight loss”; the “reduction of CFU of M. tuberculosis in lungs and spleen compared with control animals” value is recorded as about 0.7 logs; the “reduction of bacterial counts in lung and spleen” value was “effective at reducing bacterial counts”. In [7] (in vivo), the “survival of the 10 week observation period” value was 100% and 80% and 60%; the “weight gain versus untreated controls” value was “gained significantly more weight than untreated controls”; the “weight loss versus untreated controls” value is on record as “protected from weight loss”. Besides, in data set [7] (in vivo, ip), the “reduction of CFU in lungs and spleen compared with untreated controls” value turned out to be 2.5 logs. In addition, the “inhibition of M. tuberculosis growth in broth culture” value in the data set on M. tuberculosis Erdman is “inhibited M. tuberculosis”. Also, for the setting “guinea pig, in vivo”, the “MTD in the presence of ascorbate relative to absence of ascorbate” value amounted to 4 fold, the “maximum tolerated dose for guinea pigs infected with M. tuberculosis” value is recorded as 1.5 mg kg^−1 day^− and the tolerability entry is reported as “well-tolerated”.
For `O=C1O[C@H]([C@@H](O)CO)C(O)=C1O` [ascorbate], the “total dose well tolerated by guinea pigs” value (i.p., 9 mmoles kg^−1 day^−1 not well tolerated) was determined as 3 mmol/kg/day.
